These results are taken from US20080051429A1, “USE OF 4-AMINO-PIPERIDINES FOR TREATING SLEEP DISORDERS” (priority 2006, published 2008).

One assay deals with T1, 5-HT2A receptor (Homo sapiens, UniProt P28223).
T1 construct: expressed in transfected cells; host or cells: NIH3T3 cells, pSI expression vector
Description: R-SAT functional receptor assay. Format: cell-based.

The target of assay [1] is T2, 5HT1A (Rattus norvegicus, UniProt P19327).
T2 construct: expressed in transfected cells
Description: R-SAT selectivity profile. The note with it: antagonist. It counts as cell-based. The method, then: (§1) The functional receptor assay, Receptor Selection and Amplification Technology (R-SAT), was used (with minor modifications from that previously described U.S. Pat. No. 5,707,798) to screen compounds for efficacy at the 5-HT2A receptor. Briefly, NIH3T3 cells were grown in 96 well tissue culture plates to 70-80% confluence. Cells were transfected for 12-16 hours with plasmid DNAs using superfect (Qiagen Inc.) as per manufacture's protocols. R-SAT's were generally performed with 50 ng/well of receptor and 20 ng/well of Beta-galactosidase plasmid DNA. All receptor and G-protein constructs used were in the pSI mammalian expression vector (Promega Inc) as described in U.S. Pat. No. 5,707,798. The 5HT2A receptor gene was amplified by nested PCR from brain cDNA using the oligodeoxynucleotides based on the published sequence (see Saltzman et. al. Biochem. Biophys. Res. Comm. 181:1469-78 (1991)). Large-scale transfections, cells were transfected for 12-16 hours, then trypsinized and frozen in DMSO. Frozen cells were later thawed, plated at 10,000-40,000 cells per well of a 96 well plate that contained drug. With both methods, cells were then grown in a humidified atmosphere with 5% ambient CO2 for five days. Media was then removed from the plates and marker gene activity was measured by the addition of the beta-galactosidase substrate ONPG (in PBS with 5% NP-40). The resulting colorimetric reaction was measured in a spectrophotometric plate reader (Titertek Inc.)at […]. All data were analyzed using the computer program XLFit (IDBSm). Efficacy is the percent maximal repression compared to repression by a control compound (ritanserin in the case of 5HT2A). pIC50 is the negative of the log(IC50), where IC50 is the calculated concentration in Molar that produces 50% maximal repression.
(§2) R-SAT assays (as described in Example 42) were carried out with cells transfected with receptors (listed below) to determine the receptor selectivity profile for compound 26HCH16D. 5HT2A inverse agonist data (IC50 nM; % efficacy) were derived from detailed dose response curves (7 points in triplicate).

The next assay concerns the target T3, alpha1a/D (Rattus norvegicus, UniProt P23944).
T3 construct: expressed in transfected cells
Description: R-SAT selectivity profile. Format: cell-based. The protocol:
as §1, §2

In the next assay the target is T4, alpha1c/A (Homo sapiens, UniProt P35348).
T4 construct: expressed in transfected cells
T4 sequence (P35348 1-466): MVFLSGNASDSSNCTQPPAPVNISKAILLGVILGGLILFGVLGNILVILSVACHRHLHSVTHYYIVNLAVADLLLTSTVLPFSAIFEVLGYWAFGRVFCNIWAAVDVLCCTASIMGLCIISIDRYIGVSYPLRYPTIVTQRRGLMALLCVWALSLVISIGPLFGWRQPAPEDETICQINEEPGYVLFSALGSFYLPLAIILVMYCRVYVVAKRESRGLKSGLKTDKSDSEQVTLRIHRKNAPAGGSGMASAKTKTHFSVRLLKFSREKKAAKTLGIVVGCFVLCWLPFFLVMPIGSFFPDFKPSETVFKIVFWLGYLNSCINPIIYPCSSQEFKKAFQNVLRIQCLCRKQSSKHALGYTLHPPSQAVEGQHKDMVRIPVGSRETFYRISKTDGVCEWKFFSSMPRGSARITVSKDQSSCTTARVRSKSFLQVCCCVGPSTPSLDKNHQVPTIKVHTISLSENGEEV
The experiment in a line: R-SAT selectivity profile. Format: cell-based. The protocol:
as §1, §2

The next assay has as its target T5, alpha1b/B (Mesocricetus auratus, UniProt P18841).
T5 construct: expressed in transfected cells
The experiment in a line: R-SAT selectivity profile. It counts as cell-based, hamster. The protocol:
as §1, with “Frozen cells were later thawed, plated at 10,000-40,000 cells per well of a 96 well plate that contained drug. With both methods, cells were then grown in a humidified atmosphere with 5% ambient CO2 for five days.” left out, “Efficacy is the percent maximal repression compared to repression by a control compound (ritanserin in the case of 5HT2A). pIC50 is the negative of the log(IC50), where IC50 is the calculated concentration in Molar that produces 50% maximal repression.” left out

Assay [2] has as its target T6, 5HT1A (Homo sapiens, UniProt P08908).
T6 sequence (P08908 1-422): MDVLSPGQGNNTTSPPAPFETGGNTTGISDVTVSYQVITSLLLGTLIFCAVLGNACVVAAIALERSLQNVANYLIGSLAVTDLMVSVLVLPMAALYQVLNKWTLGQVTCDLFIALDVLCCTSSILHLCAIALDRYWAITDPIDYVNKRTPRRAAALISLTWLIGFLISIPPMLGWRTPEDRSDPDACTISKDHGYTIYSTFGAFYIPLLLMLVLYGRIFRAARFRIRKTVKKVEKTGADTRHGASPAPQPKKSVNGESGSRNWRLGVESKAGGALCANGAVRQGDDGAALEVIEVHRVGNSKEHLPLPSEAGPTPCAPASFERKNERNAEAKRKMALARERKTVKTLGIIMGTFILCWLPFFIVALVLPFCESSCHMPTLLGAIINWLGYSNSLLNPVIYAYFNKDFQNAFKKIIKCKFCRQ
Description: R-SAT selectivity profile. It counts as cell-based. More on the design: expressed in transfected cells. The note with it: agonist. The method, then: as §1, §2

A further assay concerns the target 5HT1E (Homo sapiens, UniProt P28566). Description: R-SAT selectivity profile. It counts as cell-based. Also on record: expressed in transfected cells. The note with it: agonist. The method, then: as §1, §2
The target of the next assay is 5HT2B (Homo sapiens, UniProt P41595). Description: R-SAT selectivity profile. It counts as cell-based. Also on record: expressed in transfected cells. The protocol:
as §1, §2

In another assay the target is T7, 5HT2C (Homo sapiens, UniProt P28335).
T7 sequence (P28335 33-458): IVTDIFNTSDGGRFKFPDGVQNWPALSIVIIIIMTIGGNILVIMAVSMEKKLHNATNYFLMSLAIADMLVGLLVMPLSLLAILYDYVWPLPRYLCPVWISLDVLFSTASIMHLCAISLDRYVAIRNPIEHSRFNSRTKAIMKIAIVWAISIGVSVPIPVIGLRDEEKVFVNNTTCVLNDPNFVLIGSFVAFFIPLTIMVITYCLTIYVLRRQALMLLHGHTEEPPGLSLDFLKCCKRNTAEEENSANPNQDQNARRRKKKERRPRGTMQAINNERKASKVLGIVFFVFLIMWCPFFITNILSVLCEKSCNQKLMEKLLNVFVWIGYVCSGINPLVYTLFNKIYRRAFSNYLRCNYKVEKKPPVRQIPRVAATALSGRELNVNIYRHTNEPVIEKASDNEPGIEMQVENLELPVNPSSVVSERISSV
The experiment in a line: R-SAT selectivity profile. More on the design: expressed in transfected cells. It counts as cell-based. The protocol:
as §1, §2

The next assay deals with D2 (Homo sapiens, UniProt P14416). Description: R-SAT selectivity profile. It counts as cell-based. Also on record: expressed in transfected cells. The protocol:
as §1, §2

The target of the next assay is H1 (Homo sapiens, UniProt P35367). The experiment in a line: R-SAT selectivity profile. Format: cell-based. More on the design: expressed in transfected cells. The method, then: as §1, §2
The next assay deals with Male NSA mice. Description: In vivo determination of behavioral effects (motor activity, MK-801 hyperactivity). The note with it: p.o.; minimum effective dose vs vehicle control. The method, then: Male NSA mice (Harlan; San Deigo, Calif.) were used as subjects. Mice weighed 20-30 g. Animals were housed 8/cage in the One Cage system (One Cage; Lab Products, Inc., Seaford, Del.) with bedding (⅛ inch Bed “O” Cob; Harlan Teklad, Madison, Wis.) in a room with controlled temperature 22±3° C. and a 12 hour light:dark cycle (lights on 6 am). Water and standard rodent chow (Harlan Teklad) were continuously available in the home cage. For testing, plastic locomotor activity cages (20×20×30 cm; AccuScan Instruments, Columbus, Ohio) were equipped with photocell beams for monitoring horizontal activity. Data were collected using Versamax computer software (AccuScan Instruments). For determination of spontaneous activity, test compounds were administered alone (s.c. 10 min or p.o. 30 min before the session). For hyperactivity experiments, mice were injected with 0.3 mg/kg MK-8011.p. 15 min precession (the peak dose for producing hyperactivity in an inverted-U dose-effect curve as determined in pilot experiments) in combination with vehicle or test compound. Motor activity data were collected during a 15 min session in a lit room. Mice had no prior exposure to the motor cages. Each dose or dose combination was tested in a separate group of mice (n=8). Distance traveled (cm) was calculated and averaged across animals in a group. […]

Structures can show the parent of a compound that is named as a salt. Where two headings read alike, the source gives them in different places.

Chain of H1 (P35367 whole entry): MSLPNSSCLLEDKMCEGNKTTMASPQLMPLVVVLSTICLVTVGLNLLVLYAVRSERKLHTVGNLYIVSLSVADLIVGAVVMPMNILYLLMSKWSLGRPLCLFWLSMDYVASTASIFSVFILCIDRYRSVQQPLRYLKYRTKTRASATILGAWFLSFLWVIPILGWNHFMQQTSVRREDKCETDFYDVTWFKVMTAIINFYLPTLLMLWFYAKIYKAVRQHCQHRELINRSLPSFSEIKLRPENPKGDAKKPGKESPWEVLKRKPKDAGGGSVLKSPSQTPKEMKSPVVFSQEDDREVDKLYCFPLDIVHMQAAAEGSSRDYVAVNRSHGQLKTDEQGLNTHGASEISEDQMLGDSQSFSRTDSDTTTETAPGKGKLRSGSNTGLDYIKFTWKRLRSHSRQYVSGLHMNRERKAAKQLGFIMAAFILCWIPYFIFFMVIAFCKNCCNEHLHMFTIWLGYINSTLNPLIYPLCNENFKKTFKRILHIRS
Chain of D2 (P14416 whole entry): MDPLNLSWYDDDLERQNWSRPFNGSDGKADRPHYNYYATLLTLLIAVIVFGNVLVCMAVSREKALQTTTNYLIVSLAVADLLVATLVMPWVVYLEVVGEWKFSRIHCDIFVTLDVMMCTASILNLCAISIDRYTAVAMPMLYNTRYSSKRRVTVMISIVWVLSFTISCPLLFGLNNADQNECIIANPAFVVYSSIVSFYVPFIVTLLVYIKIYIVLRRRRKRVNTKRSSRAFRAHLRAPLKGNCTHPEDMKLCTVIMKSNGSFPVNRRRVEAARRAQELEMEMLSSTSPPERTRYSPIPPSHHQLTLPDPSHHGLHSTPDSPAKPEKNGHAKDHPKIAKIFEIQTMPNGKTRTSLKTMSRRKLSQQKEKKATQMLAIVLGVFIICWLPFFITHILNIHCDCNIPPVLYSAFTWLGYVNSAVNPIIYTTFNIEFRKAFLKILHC
T1 sequence (P28223 whole entry): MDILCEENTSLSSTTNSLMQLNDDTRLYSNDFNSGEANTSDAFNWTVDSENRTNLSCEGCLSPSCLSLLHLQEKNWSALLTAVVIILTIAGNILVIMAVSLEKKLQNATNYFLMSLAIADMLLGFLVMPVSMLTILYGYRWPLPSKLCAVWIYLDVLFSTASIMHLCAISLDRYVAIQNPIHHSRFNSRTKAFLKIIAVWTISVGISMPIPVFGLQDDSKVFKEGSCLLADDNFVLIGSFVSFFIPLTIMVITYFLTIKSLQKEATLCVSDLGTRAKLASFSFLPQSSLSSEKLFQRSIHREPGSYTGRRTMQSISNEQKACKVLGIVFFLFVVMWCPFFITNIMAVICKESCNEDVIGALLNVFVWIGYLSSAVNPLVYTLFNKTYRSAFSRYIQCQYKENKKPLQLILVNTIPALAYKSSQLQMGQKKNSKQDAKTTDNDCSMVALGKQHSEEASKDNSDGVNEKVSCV
Chain of 5HT2B (P41595 whole entry): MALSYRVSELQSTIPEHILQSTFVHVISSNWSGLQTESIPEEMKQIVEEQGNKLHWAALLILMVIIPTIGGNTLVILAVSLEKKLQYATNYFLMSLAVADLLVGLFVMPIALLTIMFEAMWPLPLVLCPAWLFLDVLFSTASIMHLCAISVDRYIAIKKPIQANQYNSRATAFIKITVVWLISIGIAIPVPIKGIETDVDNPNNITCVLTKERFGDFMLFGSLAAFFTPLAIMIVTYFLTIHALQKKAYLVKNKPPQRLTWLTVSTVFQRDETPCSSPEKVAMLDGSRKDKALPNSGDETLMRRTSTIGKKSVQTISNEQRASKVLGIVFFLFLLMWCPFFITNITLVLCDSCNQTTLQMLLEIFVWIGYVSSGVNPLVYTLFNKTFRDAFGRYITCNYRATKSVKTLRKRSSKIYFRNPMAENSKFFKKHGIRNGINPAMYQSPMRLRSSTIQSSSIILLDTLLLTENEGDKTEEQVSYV
T3 sequence (P23944 whole entry): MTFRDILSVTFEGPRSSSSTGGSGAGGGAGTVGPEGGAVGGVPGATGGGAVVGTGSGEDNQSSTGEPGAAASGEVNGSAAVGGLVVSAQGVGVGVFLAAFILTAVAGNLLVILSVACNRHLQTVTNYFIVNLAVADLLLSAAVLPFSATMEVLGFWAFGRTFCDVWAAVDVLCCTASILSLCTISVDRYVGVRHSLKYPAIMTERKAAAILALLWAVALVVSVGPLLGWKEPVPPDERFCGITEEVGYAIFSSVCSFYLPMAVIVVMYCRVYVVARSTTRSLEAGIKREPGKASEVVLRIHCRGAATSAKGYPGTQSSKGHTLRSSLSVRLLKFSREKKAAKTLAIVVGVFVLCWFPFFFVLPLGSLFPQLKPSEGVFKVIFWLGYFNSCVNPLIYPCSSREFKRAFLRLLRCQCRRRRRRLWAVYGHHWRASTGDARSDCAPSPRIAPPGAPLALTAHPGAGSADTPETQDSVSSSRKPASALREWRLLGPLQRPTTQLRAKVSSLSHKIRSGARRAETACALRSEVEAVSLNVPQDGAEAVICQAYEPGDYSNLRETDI
T5 sequence (P18841 whole entry): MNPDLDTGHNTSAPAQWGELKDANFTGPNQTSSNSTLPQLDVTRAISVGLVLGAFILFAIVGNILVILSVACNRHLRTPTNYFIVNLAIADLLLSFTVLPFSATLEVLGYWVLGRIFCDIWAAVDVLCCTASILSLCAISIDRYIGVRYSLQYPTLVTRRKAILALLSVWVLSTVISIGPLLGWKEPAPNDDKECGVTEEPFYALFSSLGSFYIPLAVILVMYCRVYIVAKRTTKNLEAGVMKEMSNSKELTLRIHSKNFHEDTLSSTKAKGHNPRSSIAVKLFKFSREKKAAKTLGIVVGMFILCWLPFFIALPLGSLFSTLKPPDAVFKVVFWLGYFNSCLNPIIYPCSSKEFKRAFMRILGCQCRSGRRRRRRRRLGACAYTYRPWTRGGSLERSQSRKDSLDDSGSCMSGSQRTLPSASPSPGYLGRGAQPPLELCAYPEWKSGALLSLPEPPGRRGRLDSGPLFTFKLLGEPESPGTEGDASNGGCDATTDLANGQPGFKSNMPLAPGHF
T2 sequence (P19327 whole entry): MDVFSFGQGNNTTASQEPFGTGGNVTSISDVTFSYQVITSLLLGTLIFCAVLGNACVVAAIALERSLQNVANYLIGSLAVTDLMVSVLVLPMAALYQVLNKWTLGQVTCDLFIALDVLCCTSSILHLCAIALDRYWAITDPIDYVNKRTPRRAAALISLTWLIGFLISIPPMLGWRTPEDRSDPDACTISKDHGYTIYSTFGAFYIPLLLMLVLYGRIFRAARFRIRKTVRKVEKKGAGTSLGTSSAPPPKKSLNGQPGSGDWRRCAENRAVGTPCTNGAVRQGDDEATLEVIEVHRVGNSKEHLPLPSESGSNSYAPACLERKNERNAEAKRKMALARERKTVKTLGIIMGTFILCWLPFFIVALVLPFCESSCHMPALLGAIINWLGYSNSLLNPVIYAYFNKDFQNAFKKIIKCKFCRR
Chain of 5HT1E (P28566 whole entry): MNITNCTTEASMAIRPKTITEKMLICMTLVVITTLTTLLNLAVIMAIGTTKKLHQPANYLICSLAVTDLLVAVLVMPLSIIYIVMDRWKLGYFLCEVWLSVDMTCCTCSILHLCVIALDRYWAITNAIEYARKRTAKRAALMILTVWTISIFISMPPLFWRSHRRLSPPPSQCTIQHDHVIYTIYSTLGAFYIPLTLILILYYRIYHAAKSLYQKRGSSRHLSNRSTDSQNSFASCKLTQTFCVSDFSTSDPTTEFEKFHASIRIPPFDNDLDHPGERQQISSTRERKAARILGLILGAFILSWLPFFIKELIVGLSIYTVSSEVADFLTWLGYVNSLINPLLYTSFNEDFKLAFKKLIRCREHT

Regarding `Cc1ccc(CN(C(=O)NCc2ccccc2)C2CCN(Cc3ccccc3)CC2)cc1` [Example 26HCH16D, N-((4-Methylphenyl)methyl)-N-(1-(phenylmethyl)piperidin-4-yl)-N′-phenylmethylcarbamide hydrochloride], at 5-HT2A receptor (IC50, Inverse Agonist, 7 points in triplicate), the IC50 came to 0.9 nM. Also, the “selectivity as 5-HT2A inverse agonist” value at 5-HT2A receptor (in words) was “highly selective”. Moreover, at 5-HT2A receptor (read-out: % efficacy), the Emax is 79%. The Efficacy entry is “nr (nr=activity less than 30% at all doses tested (3, 30, 300, 3000 nM), therefore EC50/IC50 greater than 3000 nM)” on 5HT1A [1]; “nr (nr=activity less than 30% at all doses tested (3, 30, 300, 3000 nM), therefore EC50/IC50 greater than 3000 nM)” on alpha1a/D (agonist); “nr (nr=activity less than 30% at all doses tested (3, 30, 300, 3000 nM), therefore EC50/IC50 greater than 3000 nM)” at alpha1a/D (antagonist); “nr (nr=activity less than 30% at all doses tested (3, 30, 300, 3000 nM), therefore EC50/IC50 greater than 3000 nM)” on alpha1c/A (agonist); “nr (nr=activity less than 30% at all doses tested (3, 30, 300, 3000 nM), therefore EC50/IC50 greater than 3000 nM)” on alpha1b/B (agonist); “nr (nr=activity less than 30% at all doses tested (3, 30, 300, 3000 nM), therefore EC50/IC50 greater than 3000 nM)” on alpha1b/B (antagonist). Further, the Efficacy entry at 5HT1A [2] was “nr (nr=activity less than 30% at all doses tested (3, 30, 300, 3000 nM), therefore EC50/IC50 greater than 3000 nM)”; on 5HT1E, “nr (nr=activity less than 30% at all doses tested (3, 30, 300, 3000 nM), therefore EC50/IC50 greater than 3000 nM)”; at D2 (agonist) it was “nr (nr=activity less than 30% at all doses tested (3, 30, 300, 3000 nM), therefore EC50/IC50 greater than 3000 nM)”; at H1 (agonist), “nr (nr=activity less than 30% at all doses tested (3, 30, 300, 3000 nM), therefore EC50/IC50 greater than 3000 nM)”. Besides, the “initial concentration at which at least 30% efficacy observed” value is on record as 3000 nM at alpha1c/A (Antagonist, 4 dose profiling); 3000 nM at 5HT2B (Antagonist, 4 dose profiling); 3000 nM on 5HT2C (Inverse Agonist, 4 dose profiling); 3000 nM on D2 (Antagonist, 4 dose profiling); 3000 nM on H1 (Antagonist, 4 dose profiling). The actual efficacy figure on alpha1c/A (antagonist) was found to be 46%; at 5HT2B (antagonist) it was 60%; on 5HT2C (inverse agonist) it was 79%; on D2 it was 73%; at H1 (antagonist), 30%.
Regarding `CC(C)COc1ccc(CC(=O)N(Cc2ccc(F)cc2)C2CCN(CCCN3C(=O)OC[C@@H]3C(C)C)CC2)cc1.O=C(O)C(=O)O` [Example 117NLS01, N-(4-Fluorobenzyl)-2-(4-isobutoxyphenyl)-N-{1-[3-(4-(S)-isopropyl-2-oxo-oxazolidin-3-yl)propyl]piperidin-4-yl}acetamide, oxalate], on 5-HT2A receptor (120 h, read-out: 5HT2A % INH), the Emax is 104%. At 5-HT2A receptor (Table 5, read-out: 5HT2A pIC50 (converted)), the IC50 was 0.2 nM. Besides, the “MED in vivo po” value with Male NSA mice is listed as 1 mg/kg.
